# Experimental data reported in US20050181376A1, “Antisense modulation of microsomal triglyceride transfer protein expression” (ISIS Pharmaceuticals, Inc., priority 2001, published 2005).
# Strand notation (5' to 3'): a small letter for the sugar, then the base; units joined by * are phosphorothioate-linked, units joined directly phosphodiester-linked; [ ] holds rarer units or linkages, { } end groups; capitals alone tell only the bases. e = 2'-O-(2-methoxyethyl) (MOE); [5mC] = 5-methylcytosine; d = 2'-deoxy (DNA)
# Tested on: human microsomal triglyceride transfer protein mRNA
# Assay: not given
# Conditions: not given
row,Substance,% INHIB (inhibition of human microsomal triglyceride transfer protein mRNA levels)
1,GATGATTCAAAATGACGCTG (chemistry not given here) [ISIS 144444],at least 30%

# Tested on: human microsomal triglyceride transfer protein mRNA
# Assay: Antisense inhibition of human microsomal triglyceride transfer protein mRNA levels, quantitative real-time PCR; also: test concentration or dose not given here
# Conditions: averages from two experiments
row,Substance,% INHIB (inhibition of human microsomal triglyceride transfer protein mRNA levels)
1,144424 (eA*eG*e[5mC]*eA*eG*dA*dT*dA*d[5mC]*dA*dT*d[5mC]*d[5mC]*dT*dG*eG*eT*eG*eT*e[5mC]; antisense) [compound 144424],23%
2,144410 (e[5mC]*e[5mC]*eA*eG*eT*dT*dG*dT*dG*dT*dG*dA*d[5mC]*d[5mC]*dT*eT*eT*eA*eA*e[5mC]; antisense) [compound 144410],38%
3,144422 (e[5mC]*e[5mC]*eT*eG*eG*dA*dG*dG*dA*dT*dA*dA*dT*dG*d[5mC]*eT*eG*e[5mC]*eT*eG; antisense) [compound 144422],37%
4,GCGGTAGCCCACGCTGTCTT (antisense eG*e[5mC]*eG*eG*eT*dA*dG*d[5mC]*d[5mC]*d[5mC]*dA*d[5mC]*dG*d[5mC]*dT*eG*eT*e[5mC]*eT*eT) [ISIS 144412],at least 30%
5,144414 (eG*eA*eT*eT*eA*dG*dA*dT*dG*dA*dA*dG*dG*dA*dG*e[5mC]*eG*eT*eA*eG; antisense) [compound 144414],0%
6,ATGTGCCTTCTACCTTAAGG (antisense eA*eT*eG*eT*eG*d[5mC]*d[5mC]*dT*dT*d[5mC]*dT*dA*d[5mC]*d[5mC]*dT*eT*eA*eA*eG*eG) [ISIS 144449],at least 30%
7,TCAACTGCATCCAGTGCCCA (antisense eT*e[5mC]*eA*eA*e[5mC]*dT*dG*d[5mC]*dA*dT*d[5mC]*d[5mC]*dA*dG*dT*eG*e[5mC]*e[5mC]*e[5mC]*eA) [ISIS 144408],at least 30%
8,CCAGTTGTGTGACCTTTAAC (antisense e[5mC]*e[5mC]*eA*eG*eT*dT*dG*dT*dG*dT*dG*dA*d[5mC]*d[5mC]*dT*eT*eT*eA*eA*e[5mC]) [ISIS 144410],at least 30%
9,TCATATTGACCAGCAATCCT (antisense eT*e[5mC]*eA*eT*eA*dT*dT*dG*dA*d[5mC]*d[5mC]*dA*dG*d[5mC]*dA*eA*eT*e[5mC]*e[5mC]*eT) [ISIS 144409],at least 30%
10,144443 (eG*eT*eA*eG*e[5mC]*dA*dT*dA*d[5mC]*dT*dG*d[5mC]*dA*dT*dA*eT*eA*e[5mC]*e[5mC]*e[5mC]; antisense) [compound 144443],51%
11,144439 (e[5mC]*eG*e[5mC]*eT*eG*dG*dA*dA*dG*dT*dA*d[5mC]*dT*dA*dT*e[5mC]*e[5mC]*eG*eG*e[5mC]; antisense) [compound 144439],52%
12,144431 (e[5mC]*eG*eA*eG*eT*dA*dG*dA*dG*dA*dA*dT*dG*dT*d[5mC]*eT*eA*eG*eG*e[5mC]; antisense) [compound 144431],26%
